Reference: ChEMBL document CHEMBL1138705, “Tetrahydroisoquinoline derivatives as melatonin MT2 receptor antagonists” (Bioorg Med Chem Lett, 2004)

Legend:
[1] = target: T1, Melatonin receptor type 1B (Homo sapiens, UniProt P49286); assay: Inhibitory concentration against Melatonin receptor type 1B
T1 sequence (P49286 whole entry): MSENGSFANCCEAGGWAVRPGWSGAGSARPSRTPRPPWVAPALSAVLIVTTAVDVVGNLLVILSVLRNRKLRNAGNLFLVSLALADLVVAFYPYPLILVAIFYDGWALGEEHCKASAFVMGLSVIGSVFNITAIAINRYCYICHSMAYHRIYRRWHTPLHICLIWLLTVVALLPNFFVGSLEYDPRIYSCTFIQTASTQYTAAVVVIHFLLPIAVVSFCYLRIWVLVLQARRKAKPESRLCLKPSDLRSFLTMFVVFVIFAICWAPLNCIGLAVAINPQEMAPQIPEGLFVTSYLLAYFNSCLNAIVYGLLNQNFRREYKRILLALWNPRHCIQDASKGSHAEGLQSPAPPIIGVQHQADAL

[2] = target: Melatonin receptor type 1A (Homo sapiens, UniProt P48039); assay: Inhibitory concentration against Melatonin receptor type 1A
Melatonin receptor type 1A, sequence (P48039 whole entry): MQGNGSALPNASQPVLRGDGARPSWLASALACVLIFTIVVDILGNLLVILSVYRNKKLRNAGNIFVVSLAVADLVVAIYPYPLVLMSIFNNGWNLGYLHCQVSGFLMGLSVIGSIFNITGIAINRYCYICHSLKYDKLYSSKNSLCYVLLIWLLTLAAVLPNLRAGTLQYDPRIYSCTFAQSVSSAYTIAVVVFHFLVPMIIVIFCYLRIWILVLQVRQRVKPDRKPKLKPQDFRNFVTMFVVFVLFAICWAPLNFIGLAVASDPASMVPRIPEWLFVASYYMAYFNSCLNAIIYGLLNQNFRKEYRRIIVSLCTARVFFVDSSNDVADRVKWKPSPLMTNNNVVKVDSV

IC50 [1] [nM]	IC50 [2] [nM]	SMILES
> 1000	> 1000	CC(=O)N1CCc2ccccc2C1CC(c1ccccc1)c1ccccc1 (stereo unspecified)
270	> 1000	COc1ccc2c(c1)CCN(C(C)=O)C2CC(c1ccccc1)c1ccccc1 (stereo unspecified)
310	–	COc1cc2c(cc1OC)C(CC(c1ccccc1)c1ccccc1)N(C(=O)C1CCC1)CC2 (stereo in doubt; 1j)
> 1000	> 1000	COc1ccc2c(c1OC)CCN(C(C)=O)C2CC(c1ccccc1)c1ccccc1 (stereo unspecified)
140	> 1000	CC(=O)N1CCc2cc(F)ccc2C1CC(c1ccccc1)c1ccccc1 (stereo unspecified)
280	–	CCCCCC(=O)N1CCc2cc(OC)c(OC)cc2C1CC(c1ccccc1)c1ccccc1 (stereo unspecified)
30	> 1000	COc1cc2c(cc1OC)C(CC(c1ccccc1)c1ccccc1)N(C(N)=O)CC2 (stereo unspecified)
22	673	COC(=O)N1CCc2cc(OC)c(OC)cc2C1CC(c1ccccc1)c1ccccc1 (stereo unspecified)
45	> 1000	COc1cc2c(c(OC)c1)C(CC(c1ccccc1)c1ccccc1)N(C(C)=O)CC2 (stereo unspecified)
5.5	512	COc1ccc2c(c1)C(CC(c1ccccc1)c1ccccc1)N(C(C)=O)CC2 (stereo unspecified)
9.7	> 1000	COc1cc2c(cc1OC)C(CC(c1ccccc1)c1ccccc1)N(C(C)=O)CC2 (stereo unspecified)
120	> 1000	COc1cc2c(cc1OC)C(CC(c1ccccc1)c1ccccc1)N(C(=O)c1ccccc1)CC2 (stereo unspecified)
1000	–	COc1cc2c(cc1OC)C(CCc1ccccc1)N(C(=O)c1ccc(C(F)(F)F)cc1)CC2 (stereo unspecified)
100	> 1000	COc1cc2c(cc1OC)C(CC(c1ccccc1)c1ccccc1)N(C(=O)C(F)(F)F)CC2 (stereo unspecified)
240	–	COc1cc2c(cc1OC)C(CC(c1ccccc1)c1ccccc1)N(C(=O)C1CCC1)CC2 (stereo in doubt; 1m)
400	–	CCCCCCC(=O)N1CCc2cc(OC)c(OC)cc2C1CC(c1ccccc1)c1ccccc1 (stereo unspecified)
220	–	COc1cc2c(cc1OC)C(CCc1ccccc1)N(C(=O)C1CCCCC1)CC2 (stereo unspecified)
9.9	621	COc1cc2c(cc1OC)C(CC(c1ccccc1)c1ccccc1)N(C=O)CC2 (stereo unspecified)
370	–	COc1cc2c(cc1OC)C(CC(c1ccccc1)c1ccccc1)N(C(=O)C1CCCCC1)CC2 (stereo unspecified)
60	> 1000	CNC(=O)N1CCc2cc(OC)c(OC)cc2C1CC(c1ccccc1)c1ccccc1 (stereo unspecified)
24	–	COc1cc2c(cc1OC)C(CCc1ccccc1)N(C(=O)C1CCC1)CC2 (stereo unspecified)
79	> 1000	CCCC(=O)N1CCc2cc(OC)c(OC)cc2C1CC(c1ccccc1)c1ccccc1 (stereo unspecified)
> 1000	> 1000	CC(=O)N1CCc2c(ccc3c2CCO3)C1CC(c1ccccc1)c1ccccc1 (stereo unspecified)
62	> 1000	CCC(=O)N1CCc2cc(OC)c(OC)cc2C1CC(c1ccccc1)c1ccccc1 (stereo unspecified)
> 1000	> 1000	COc1cccc2c1CCN(C(C)=O)C2CC(c1ccccc1)c1ccccc1 (stereo unspecified)
160	> 1000	COc1cc2c(cc1OC)C(CCc1ccccc1)N(C(N)=O)CC2 (stereo unspecified)
76	> 1000	COc1cc2c(cc1OC)C(CCc1ccccc1)N(C(C)=O)CC2 (stereo unspecified)
24	230	COc1cc2c(cc1Br)CCN(C(C)=O)C2CC(c1ccccc1)c1ccccc1 (stereo unspecified)
810	–	COc1cc2c(cc1OC)C(CC(c1ccccc1)c1ccccc1)N(C(=O)c1ccc(C(F)(F)F)cc1)CC2 (stereo unspecified)
83	> 1000	COc1cc2c(cc1OC)C(CCc1ccccc1)N(C=O)CC2 (stereo unspecified)
